Experimental data published in patent EP1070068B2, “GRANULATIMIDE DERIVATIVES FOR USE IN CANCER TREATMENT” (THE UNIVERSITY OF BRITISH COLUMBIA, priority 1998, dated 1999).
Where two headings read alike, the source gives them in different places.

Columns and labels:
MCF-7 mp53 cells [1] = assay: G2 checkpoint inhibition assay (TG-3 ELISA of mitotic cells after γ-irradiation, with nocodazole); type: cell-based; details: for IC50: Homo sapiens
Experimental: G2 Checkpoint Inhibitor Assay: The G2 checkpoint inhibitor assay described herein involves treating cells, e. g. cells associated with a hyperproliferative disorder, including cancer cells, with a DNA damaging agent under conditions whereby arrest of the cells at G2 will be induced. A sample to be tested for G2 checkpoint inhibition activity and an agent which arrests cells in mitosis are applied to the cells, following which it is determined whether the G2 checkpoint is overcome and the cells enter mitosis. Release of the cells from arrest at G2 or prevention of arrest at G2, such that the cells proceed to mitosis, is the indicator of G2 checkpoint inhibition activity.
MCF-7 mp53 cells (mutant for p53) were cultured as monolayers in DMEM supplemented with 10% fetal bovine serum, 2 mM L-glutamine, 50 units/ml penicillin, 50 µg/ml streptomycin, 1 mM sodium pyruvate, MEM non-essential amino acids, 1 µg/ml bovine insulin, 1 µg/ml hydrocortisone, 1 ng/ml human epidermal growth factor, and 1 ng/ml β-estradiol at 37°C in humidified 5% CO2. The cells were seeded at 10,000 cells per well of 96-well polystyrene tissue culture plates (Falcon) in 100 µl medium. The cells were allowed to grow for 24 hours and then were irradiated with 6.5 Gy using a ^60Co source (Gammacell 200™, Atomic Energy Commission of Canada) delivering γ-rays at a dose rate of 1.4 Gy/min.
Extracts from marine organisms at about 10µg/ml (from 1000-fold stocks in DMSO) and 100 ng/ml nocodazole (Sigma, from a 1000-fold stock in DMSO) were added 16 hours after irradiation and the cells were incubated for a further 8 hours.
After drug treatment, the cell culture medium was removed and the cells were lysed by adding 100 µl of ice-cold lysis buffer (1 mM EGTA pH 7.4, 0.2 mM PMSF) and pipeting up-and-down 10 times. The cell lysates were transferred to 96-well PolySorp™ plates (Nunc) and dried completely by blowing warm air at about 37°C with a hair dryer positioned about 3 feet above plates. […] This was removed and replaced with 100 µl antibody buffer containing 0.1-0.15 µg/ml TG-3 monoclonal antibody and horseradish peroxidase-labelled goat anti-mouse IgM (Southern Biotechnology Associates) at a dilution of 1/500.
After overnight incubation at 4°C, the antibody solution was removed and the wells were rinsed 3 times with 200 µl 10 mM Tris HCl pH 7.4, 0.02% Tween 20™.

CDK1 = CDK1 (Homo sapiens, UniProt P06493); assay: Protein kinase inhibition assay (γ-32P ATP); type: biochemical; details: room temperature, 15 minutes
Sequence of CDK1 (P06493 whole entry, species assumed): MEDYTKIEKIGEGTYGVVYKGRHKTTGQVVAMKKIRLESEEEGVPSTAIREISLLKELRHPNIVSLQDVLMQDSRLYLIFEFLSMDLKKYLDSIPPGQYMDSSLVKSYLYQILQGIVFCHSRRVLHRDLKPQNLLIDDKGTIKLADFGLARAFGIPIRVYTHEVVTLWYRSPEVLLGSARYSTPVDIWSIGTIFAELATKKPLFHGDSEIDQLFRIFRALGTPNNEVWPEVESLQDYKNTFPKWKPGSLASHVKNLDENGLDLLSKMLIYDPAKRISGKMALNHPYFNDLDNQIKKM
Sequence of CDK1 (P14635 whole entry partner, species assumed): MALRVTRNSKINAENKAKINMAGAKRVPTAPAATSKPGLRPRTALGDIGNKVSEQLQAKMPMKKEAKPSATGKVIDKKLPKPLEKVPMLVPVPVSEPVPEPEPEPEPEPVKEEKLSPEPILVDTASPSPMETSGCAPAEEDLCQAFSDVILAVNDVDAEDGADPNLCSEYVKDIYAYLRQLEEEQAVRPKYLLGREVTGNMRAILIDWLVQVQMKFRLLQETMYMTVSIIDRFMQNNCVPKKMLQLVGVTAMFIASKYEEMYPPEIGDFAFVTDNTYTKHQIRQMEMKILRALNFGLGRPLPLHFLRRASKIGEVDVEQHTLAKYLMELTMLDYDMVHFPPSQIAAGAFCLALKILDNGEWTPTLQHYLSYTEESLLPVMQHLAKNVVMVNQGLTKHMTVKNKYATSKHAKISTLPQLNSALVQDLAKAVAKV
Experimental: (§1) 100% DMSO was used as a negative control.
(§2) Kinase reactions are performed at room temperature. The reaction mixture contains diluted test compound, the protein kinase, substrate and γ-^32P ATP. The mixture is incubated for 15 minutes, and the reaction mix spotted, and counted.

GSK3b = GSK3b (Homo sapiens, UniProt P49841); assay: Protein kinase inhibition assay (γ-32P ATP, peptide substrate); type: biochemical; details: room temperature, 15 minutes
Sequence of GSK3b (P49841 whole entry, species assumed): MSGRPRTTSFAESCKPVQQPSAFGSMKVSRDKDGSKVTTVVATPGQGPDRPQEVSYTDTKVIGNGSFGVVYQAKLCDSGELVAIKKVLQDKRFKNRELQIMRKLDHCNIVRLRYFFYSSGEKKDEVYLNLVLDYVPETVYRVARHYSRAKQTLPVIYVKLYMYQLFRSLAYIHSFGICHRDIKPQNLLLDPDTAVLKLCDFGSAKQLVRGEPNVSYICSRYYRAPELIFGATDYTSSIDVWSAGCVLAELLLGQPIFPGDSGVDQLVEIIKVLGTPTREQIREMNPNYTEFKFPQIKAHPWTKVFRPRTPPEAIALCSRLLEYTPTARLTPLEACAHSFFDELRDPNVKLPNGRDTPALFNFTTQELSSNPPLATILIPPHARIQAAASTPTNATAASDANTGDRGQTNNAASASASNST
Experimental: (§3) The GSK3β peptide substrate used was […] (PO4H2)EDEE-amide. The ILK1 substrate is […]-amide.
as §1, §2

ILK1 = biological target: T1, ILK1 (Homo sapiens, UniProt Q13418); assay: as above; type: biochemical; details: room temperature, 15 minutes
T1 sequence (Q13418 1-452): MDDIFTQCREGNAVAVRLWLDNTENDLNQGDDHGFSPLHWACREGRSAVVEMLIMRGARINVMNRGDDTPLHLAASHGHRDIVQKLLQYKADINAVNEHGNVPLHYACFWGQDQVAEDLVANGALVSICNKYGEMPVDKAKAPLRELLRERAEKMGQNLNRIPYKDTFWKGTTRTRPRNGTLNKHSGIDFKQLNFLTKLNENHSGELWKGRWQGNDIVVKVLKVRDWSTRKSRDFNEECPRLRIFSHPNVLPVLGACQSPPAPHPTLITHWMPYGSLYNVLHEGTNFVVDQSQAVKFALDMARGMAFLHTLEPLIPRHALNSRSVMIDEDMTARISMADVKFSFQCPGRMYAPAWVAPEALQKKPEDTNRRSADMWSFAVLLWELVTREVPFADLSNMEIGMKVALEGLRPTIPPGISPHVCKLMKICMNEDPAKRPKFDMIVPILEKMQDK
Experimental: as §3, §1, §2

[2] = Solubility in organic solvents; type: physicochemical
MCF-7 mp53 cells [3] = assay: G2 checkpoint inhibition assay (TG-3 ELISA of mitotic cells after γ-irradiation, with nocodazole); type: cell-based; details: concentration of 0.1-30 µM
in vitro = details: human
MCF-7 cells = assay: Cell survival, soluble tetrazolium salt assay with γ-irradiation, p53+ cells; type: cell-based; details: MCF-7 cells (Figure 1C)
MCF-7 mp53 cells [4] = test system: MCF-7 mp53 cells
p53-MCF-7 cells = details: cited from earlier work
[5] = test system: p53- A549 human lung adenocarcinoma cells; details: cited from earlier work
[6] = MCF7, Table 2, read-out: IC50 G2 checkpoint
[7] = MCF7, light or radiation study, MCF-7 mp53 cells irradiated with 6.5 Gy, read-out: half-maximal G2 checkpoint inhibition (IC50)

Compound | IC50 (CDK1) [µM] | IC50 (GSK3b) [µM] | IC50 (ILK1) [µM] | IC50 (MCF-7 mp53 cells [1]; [6]) [µM] | IC50 (MCF-7 mp53 cells [1]; [7]) [µM] | also measured
Cn1c(=O)c2c(ncn2C)n(C)c1=O [caffeine, reference compound] | – | – | – | – | – | IC50 (MCF-7 mp53 cells [1]; MCF7, comparison compound, read-out: IC50 for G2 checkpoint inhibition): 1000 µM; absorbance readings at 405 nm (MCF-7 mp53 cells [1]; positive control, 2 mM): about 1.0
O=C1NC(=O)c2c1c1[nH]cnc1c1[nH]c3ccccc3c21 [Granulatimide] | 2 | 2 | > 50 | 1.3 | – | solubility ([2]; DMF or DMSO): soluble; solubility ([2]; most common organic solvents including ethanol and methanol): very insoluble; IC50 (MCF-7 mp53 cells [1]; MCF7, Figure 2, read-out: G2 checkpoint inhibitor IC50): 1.3 µM
O=C1NC(=O)C(c2c[nH]c3ccccc23)=C1c1cnc[nH]1 [Didemnimide A] | – | – | – | – | – | G2 checkpoint inhibition activity (MCF-7 mp53 cells [3]): no activity
O=C1NC(=O)c2c1c1c3ccccc3[nH]c1n1ccnc21 [compound 60] | 17 | 5 | > 50 | 6 | 2 | –
O=C1NC(=O)c2c1c1c3ccccc3[nH]c1c1nccn21 [compound 40] | > 50 | 25 | > 50 | > 100 | > 100 | –
O=C1NC(=O)c2c1c1c3ccccc3[nH]c1n1cncc21 [Isogranulatimide] | – | 0.5 | > 50 | 1.8 | 1.8 ± 0.2 | IC50 at 16 h (in vitro): 40 ± 4 µM; synergy with irradiation in killing p53+ cells (MCF-7 cells): does not kill p53+ cells synergistically; reduction of the IC50 for cytotoxicity when cells were irradiated (MCF-7 mp53 cells [4]): 5 fold; synergy with γ-irradiation in killing p53- cells (MCF-7 mp53 cells [4]; 2, 4 or 6 Gy, 16 hours for isogranulatimide): acted synergistically
CC(=O)CCCCn1c(=O)c2c(ncn2C)n(C)c1=O [Pentoxifylline] | – | – | – | – | – | enhancement of cisplatin induced killing (p53-MCF-7 cells): 30 fold; enhancement of radiation induced killing [5]: 5 fold
O=C1NC(=O)c2c1c1c3ccccc3[nH]c1c1cncn21 [compound 50] | 0.5 | 0.1 | 15 | 1 | 1 | –
